Measured values from paper PMC4106900 (Journal of medicinal chemistry, 2012).
Structures can show the parent of a compound that is named as a salt.

Columns and labels:
[1] = molecular target: S1R; details: read-out: Ki for S1R; cited from earlier work
[2] = test system: sodium, site 2 channels; assay: NovaScreen radioligand displacement screen; assay type: binding; details: 100 nM screening concentration
[3] = In vitro half-life in rat liver microsomes
[4] = test system: α2-adrenoceptors; assay: NovaScreen radioligand displacement screen; assay type: binding; details: 100 nM screening concentration
[5] = test system: 59 targets (non-SR sites); assay: NovaScreen and in-house profile of 59 targets; assay type: binding; details: 10,000 nM screening concentration
[6] = test system: neuronal (α-bungarotoxin insensitive) nicotinic receptors; assay: NovaScreen radioligand displacement screen; assay type: binding; details: 100 nM screening concentration
[7] = test system: opioid receptors; assay: Radioligand displacement screen; assay type: binding; details: 100 nM screening concentration
[8] = test system: peripheral muscarinic receptors; assay: NovaScreen radioligand displacement screen; assay type: binding; details: 100 nM screening concentration
[9] = test system: calcium L type channels; assay: NovaScreen radioligand displacement screen; assay type: binding; details: 100 nM screening concentration
[10] = molecular target: acetylcholine esterase (Homo sapiens, UniProt P22303); assay: NovaScreen radioligand displacement screen; assay type: binding; details: 100 nM screening concentration
[11] = molecular target: S1Rs (Mus musculus, UniProt O55242); assay: Small-animal PET blocking studies of [18F]13 binding in brain; assay type: in vivo; details: pre-treatment 1 mg/kg, 10 min prior to iv [18F]13, whole mouse brain
[12] = Ex vivo determination of radiometabolites in mouse plasma, liver and brain
[13] = Stability of formulated [18F]13 by analytical reverse-phase HPLC; assay type: physicochemical; details: saline/ethanol (9:1, total 10 mL)
[14] = Small-animal PET imaging, baseline brain uptake of [18F]13; assay type: in vivo, mouse
[15] = cited from earlier work; for time of maximum uptake in the brain post injection: normal mice
[16] = molecular target: vesicular acetylcholine transporter (VAChT); details: read-out: Ki for VAChT; cited from earlier work
[17] = molecular target: emopamil binding protein (EBP); details: read-out: Ki for EBP; cited from earlier work

Sequence of S1Rs (O55242 whole entry): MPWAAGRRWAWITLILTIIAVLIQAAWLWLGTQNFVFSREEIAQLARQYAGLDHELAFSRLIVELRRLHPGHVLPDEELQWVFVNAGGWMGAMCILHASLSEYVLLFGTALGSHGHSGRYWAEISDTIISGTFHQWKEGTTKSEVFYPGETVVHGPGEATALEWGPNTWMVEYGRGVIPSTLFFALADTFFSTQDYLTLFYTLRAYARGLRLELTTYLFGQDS
Sequence of acetylcholine esterase (P22303 32-614): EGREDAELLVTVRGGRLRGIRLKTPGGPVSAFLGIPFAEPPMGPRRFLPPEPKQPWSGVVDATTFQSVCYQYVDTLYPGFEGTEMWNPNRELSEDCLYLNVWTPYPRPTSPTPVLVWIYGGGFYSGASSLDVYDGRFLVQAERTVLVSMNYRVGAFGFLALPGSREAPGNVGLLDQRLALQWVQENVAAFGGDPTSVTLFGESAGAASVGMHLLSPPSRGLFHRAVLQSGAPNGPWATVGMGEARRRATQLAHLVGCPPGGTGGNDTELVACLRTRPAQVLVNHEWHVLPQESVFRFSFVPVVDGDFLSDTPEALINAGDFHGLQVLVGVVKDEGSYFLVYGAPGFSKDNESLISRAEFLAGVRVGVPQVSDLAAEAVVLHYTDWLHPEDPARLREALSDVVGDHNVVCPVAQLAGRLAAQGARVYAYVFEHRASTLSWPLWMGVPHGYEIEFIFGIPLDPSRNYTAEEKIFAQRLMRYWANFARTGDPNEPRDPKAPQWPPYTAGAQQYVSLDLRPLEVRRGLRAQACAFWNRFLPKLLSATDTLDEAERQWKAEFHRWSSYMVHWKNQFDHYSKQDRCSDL

CCCc1ccc2c(c1)sc(=O)n2CCN1CCCCCC1 [compound 9]
Ki [1]: 0.56 nM

O=c1sc2cc(CCCF)ccc2n1CCN1CCCCCC1 [compound 13, 3-(2-(azepan-1-yl)ethyl)-6-(3-fluoropropyl)benzo[d]thiazol-2(3H)-one hydrochloride]
displacement of the radioligand [2]: < 50%
clearance [3]: 0.18 mL/min/g
displacement of the radioligand [4]: < 50%
displacement of the radioligand [5]: < 50%
displacement of the radioligand [6]: < 50%
displacement of the radioligand [7]: < 50%
displacement of the radioligand [8]: < 50%
displacement of the radioligand [9]: < 50%
displacement of the radioligand [10]: < 50%

CN(C)CCN(C)CCc1ccc(Cl)c(Cl)c1 [compound 18, N-[2-(3,4-dichlorophenyl)ethyl]-N-methyl-2-(dimethylamino)-ethylamine]
reduction of [18F]13 binding in the brain at 60 min [11]: 81%

O=c1sc2cc(CCCF)ccc2n1CCN1CCCCCC1 [[^18F]13, 6-(3-fluoropropyl)-3-(2-(azepan-1-yl)ethyl)benzo[d]thiazol-2(3H)-one]
percentage of intact tracer in plasma ([12]; 30 min post administration): 60%
percentage of intact tracer in plasma ([12]; 60 min post administration): 50%
percentage of intact tracer in brain ([12]; throughout the study (30 and 60 min)): 100%
time formulated tracer shown to be stable [13]: at least 5.5 hours
brain uptake at 60 min ([14]; baseline TAC, whole mouse brain): 6 %ID/g
maximum uptake in brain ([14]; baseline TAC, whole mouse brain, within the first few minutes): ~ 17 %ID/g
brain uptake at 60 min post injection as percent of maximum ([14]; mouse brain): 65%

COc1cc(CCN2CCN(CCCc3ccccc3)CC2)ccc1OC[18F] [compound 4]
time of maximum uptake in the brain post injection [15]: 30 min

COc1cc(CCN2CCN(CCCc3ccccc3)CC2)ccc1O[11CH3] [compound 3]
Ki [16]: 50 nM
Ki [17]: 1.7 nM

FCCC1OC2(CCN(Cc3ccccc3)CC2)c2ccccc21 (centres unmarked) [compound 8]
brain level at 60 min post injection as percent of maximum ([15]; mouse brain, biodistribution): 81%
time of maximum uptake in the brain post injection [15]: 30 min
